Assay results from patent US10774053B2, “HIV protease inhibitors” (Gilead Sciences, Inc., priority 2017, dated 2020).

Test system: HIV-1 (IIIB) in MT-4 cells
Test: microbe, parasite or virus in culture
Type: cell-based
Conditions: Human immunodeficiency virus 1, IIIB, MT4, MT-4 cells, HIV-1; read-out: MT4 EC50

In order of rising EC50:
1. CC(C)(C)C[C@]1(c2ccc(-c3cnn(C4CC4)c3)c(F)c2)NC(=N)N([C@H](COC(=O)NC2(C(F)(F)F)CC2)c2ccc(Cl)c(-c3ncnn3C(F)F)c2)C1=O [Compound 144]  7.92 nM
2. CC(C)(C)C[C@]1(c2ccc(-c3cnn(C(F)F)c3)cc2)NC(=N)N([C@H](COC(=O)N[C@H]2C[C@@H]2F)c2ccc(Cl)c(-n3ncnc3C(F)F)c2)C1=O [Compound 338]  9.94 nM
3. CC(C)(C)C[C@]1(c2ccc(-n3nccn3)cc2)NC(=N)N([C@H](COC(=O)NC2(C(F)(F)F)CC2)c2ccc(Cl)c(-n3ncnc3C(F)F)c2)C1=O [Compound 226]  10.6 nM
4. CC(C)(C)C[C@]1(c2ccc(-c3cnn(C4CC4)c3)c(F)c2)NC(=N)N([C@H](COC(=O)NC2(C(F)(F)F)CC2)c2ccc(Cl)c(-n3ncnc3C(F)F)c2)C1=O [Compound 306]  10.9 nM
5. CC(C)(C)C[C@]1(c2ccc(-c3cnn(C(F)F)c3)cc2)NC(=N)N([C@H](COC(=O)NC(C)(C)C)c2ccc(Cl)c(-n3ncnc3C(F)F)c2)C1=O [Compound 183]  12 nM
6. CC(C)(C)C[C@]1(c2ccc(-c3ccccn3)cc2F)NC(=N)N([C@H](COC(=O)NC2(C(F)(F)F)CC2)c2ccc(Cl)c(-n3ncnc3C(F)F)c2)C1=O [Compound 196]  12.7 nM
7. CC(C)(C)C[C@]1(c2ccc(-c3cnn(C4CC4)n3)cc2)NC(=N)N([C@H](CNC(=O)CC2CC2)c2ccc(Cl)c(-n3ncnc3C(F)F)c2)C1=O [Compound 384]  18 nM
8. Cn1ncnc1-c1cc([C@@H](COC(=O)NC(C)(C)C(F)F)N2C(=N)N[C@](CC(C)(C)C(F)(F)F)(c3ccc(-c4cnn(C(F)F)c4)cc3)C2=O)ccc1Cl [Compound 130]  18.7 nM
9. C[C@@H](NC(=O)OC[C@H](c1ccc(Cl)c(-n2ncnc2C(F)F)c1)N1C(=N)N[C@](CC(C)(C)C)(c2ccc(-c3cnn(C(F)F)c3)cc2)C1=O)C(F)(F)F [Compound 310]  20.3 nM
10. CC(C)(C)C[C@]1(c2ccc(-c3cnc4ccccn34)cc2)NC(=N)N([C@H](COC(=O)NC2(C(F)(F)F)CC2)c2ccc(Cl)c(-c3ncnn3C(F)F)c2)C1=O [Compound 121]  21 nM
11. C[C@@H](C(=O)NC[C@H](c1ccc(Cl)c(-c2ncnn2C(F)F)c1)N1C(=N)N[C@](CC(C)(C)C(F)(F)F)(c2ccc(-c3cnn(C4CC4)n3)cc2)C1=O)C(F)(F)F [Compound 162]  21 nM
12. CC(C)(C)C[C@]1(c2ccc(-c3ccn4ccnc4c3)cc2)NC(=N)N([C@H](COC(=O)NC2(C(F)(F)F)CC2)c2ccc(Cl)c(-c3ncnn3C(F)F)c2)C1=O [Compound 120]  27.8 nM
13. CC(C)(C)C[C@]1(c2ccc(-c3cnn(C(F)F)c3)cc2)NC(=N)N([C@H](COC(=O)N(CC(F)(F)F)C2CC2)c2ccc(Cl)c(-c3ncn[nH]3)c2)C1=O [Compound 95]  30.4 nM
14. C[C@@H](CC#N)C[C@]1(c2ccc(-c3cnn(C(F)F)c3)cc2)NC(=N)N([C@H](COC(=O)NC2(C(F)(F)F)CC2)c2ccc(Cl)c(-n3ncnc3C(F)F)c2)C1=O (single isomer, unassigned) [Compound 346]  31.9 nM
15. CC(C)(F)C[C@]1(c2ccc(-c3cnn(C4CC4)c3)cc2F)NC(=N)N([C@H](COC(=O)NC(C)(C)C(F)F)c2ccc(Cl)c(-c3ncnn3C(F)F)c2)C1=O [Compound 133]  35.1 nM
16. CC(C)(C)C[C@]1(c2ccc(-c3cnn(C(F)F)c3)cc2)NC(=N)N([C@H](COC(=O)Nc2ccccc2)c2ccc(Cl)c(-c3ncn[nH]3)c2)C1=O [Compound 107]  49.1 nM
17. CC(C)(C)C[C@]1(c2ccc(-c3cnn(C(F)F)c3)cc2)NC(=N)N([C@H](COC(=O)NC2(C)CC2)c2cc(-n3cncn3)c(Cl)cn2)C1=O [Compound 269]  62.4 nM
18. CC(C)(C)C[C@]1(c2ccc(-c3cnn(C(F)F)c3)cc2)NC(=N)N([C@H](CO)c2ccc(Cl)c(-c3ncn[nH]3)c2)C1=O [Compound 42]  103 nM
19. CC(C)(C)C[C@]1(c2cc(F)cc(F)c2)NC(=N)N([C@H](COC(=O)NC2(C)CC2)c2ccc(Cl)c(-n3cccn3)c2)C1=O [Compound 257]  4180 nM
